This is an account of results in BindingDB's records for doi:10.7270/Q2PZ576Z (The Scripps Research Institute Molecular Screening Center, 2007).

The assay has as its target Sphingosine 1-phosphate receptor 3 (Homo sapiens, UniProt Q99500). Description: S1P3 receptor activation, EC50 – cell-based, NFAT-BLA reporter, dose response (AID 439).
Where [1] appears, read: inactive by the depositor's call.

Chain of Sphingosine 1-phosphate receptor 3 (Q99500 whole entry): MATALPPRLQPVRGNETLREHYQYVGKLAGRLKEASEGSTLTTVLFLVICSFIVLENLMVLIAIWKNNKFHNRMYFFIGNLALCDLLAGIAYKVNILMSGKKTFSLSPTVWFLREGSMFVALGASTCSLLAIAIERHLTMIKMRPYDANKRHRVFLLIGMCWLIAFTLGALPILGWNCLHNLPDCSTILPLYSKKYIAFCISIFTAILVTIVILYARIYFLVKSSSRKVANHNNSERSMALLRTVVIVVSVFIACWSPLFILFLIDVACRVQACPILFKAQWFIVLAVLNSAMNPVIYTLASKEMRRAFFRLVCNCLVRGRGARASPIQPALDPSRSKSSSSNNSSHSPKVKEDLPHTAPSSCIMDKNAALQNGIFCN

For orientation: EC50 means the concentration that produces a half-maximal response. Read a low EC50 as an effect from little substance. `Nc1c(C(=O)NCc2ccco2)c2nc3ccccc3nc2n1CCN1CCCCC1` [2-amino-N-(2-furanylmethyl)-1-[2-(1-piperidinyl)ethyl]-3-pyrrolo[3,2-b]quinoxalinecarboxamide] displayed an EC50 of more than 45 µM. `CCOc1ccc(-c2nc(-c3ccccc3)no2)cc1OCC` [5-(3,4-diethoxyphenyl)-3-phenyl-1,2,4-oxadiazole] registered an EC50 under setting [1] of 19.2 µM. Same read-out and setting: for `Cc1cc(C)n(-c2nc(NCc3cccnc3)c3c4c(sc3n2)COC(C)(C)C4)n1` [2-(3,5-dimethyl-1-pyrazolyl)-6,6-dimethyl-N-(3-pyridinylmethyl)-5,8-dihydropyrano[4,5]thieno[1,2-c]pyrimidin-4-amine] the value was 15.3 µM; for `Nc1c(C(=O)NC2CCCC2)c2nc3ccccc3nc2n1CC1CCCO1` (stereo not drawn) [MLS000080255], 14.7 µM. Same read-out and setting: for `CCC(C)c1ccc2oc(-c3ccc(NC(=O)c4nnc[nH]4)cc3)nc2c1` (stereo not drawn) [N-[4-(5-sec-butyl-1,3-benzoxazol-2-yl)phenyl]-1H-1,2,4-triazole-3-carboxamide] the value was 19.3 µM. As for `c1ccc(C(Cc2nc(-c3ccccn3)no2)c2ccccc2)cc1` [5-(2,2-diphenylethyl)-3-(2-pyridinyl)-1,2,4-oxadiazole], the EC50 under setting [1] was found to be 21.1 µM. In the case of `CCCN(CCC)CCCNC(=O)CC1Nc2ccccc2NC1=O` (stereo not drawn) [MLS000046817], the EC50 is more than 45 µM.

Under setting [1], `Cc1cccc2cc3c(NC(=O)c4ccccn4)nn(C)c3nc12` [MLS000082760] displayed an EC50 of 127 µM. Same read-out and setting: the result for `N#CCSc1nnc(-c2ccccc2)c(-c2ccccc2)n1` [2-[(5,6-diphenyl-1,2,4-triazin-3-yl)sulfanyl]acetonitrile] reads 47.4 µM. Compound `CCOc1ccc(-c2nc(-c3ccncc3)no2)cc1OCC` [4-[5-(3,4-diethoxyphenyl)-1,2,4-oxadiazol-3-yl]pyridine] displayed an EC50 of 2.77 µM.

In turn, `Cc1ccc2nc3c(cc(C#N)c(=O)n3-c3nccs3)c(=O)n2c1` [SMR000047276] registered a 50% effective concentration (EC50) of more than 45 µM. Turning to `CCOc1ccc(-c2noc(-c3ccncc3)n2)cc1OCC` [3-(3,4-diethoxyphenyl)-5-(4-pyridyl)-1,2,4-oxadiazole], a half-maximal effect under setting [1] (EC50) was put at 11.6 µM. Take `COc1ccc(Cn2c(N)c(C(=O)NCc3ccco3)c3nc4ccccc4nc32)cc1` [2-amino-N-(2-furanylmethyl)-1-[(4-methoxyphenyl)methyl]-3-pyrrolo[3,2-b]quinoxalinecarboxamide]: under setting [1], the EC50 was 19.8 µM. Against the preceding compound, the EC50 is about 1.7-fold higher. On the same count and under the same terms, the result for `Nc1c(C(=O)NCCN2CCOCC2)c2nc3ccccc3nc2n1CCc1ccccc1` [2-amino-N-[2-(4-morpholinyl)ethyl]-1-(2-phenylethyl)-3-pyrrolo[3,2-b]quinoxalinecarboxamide] reads 178 µM; that for `COCCNc1nc(-n2nc(C)cc2C)nc2sc3c(c12)CCCC3` [2-(3,5-dimethyl-1-pyrazolyl)-N-(2-methoxyethyl)-5,6,7,8-tetrahydro-[1]benzothiolo[2,3-d]pyrimidin-4-amine], 13.3 µM; that for `CC(Oc1ccccc1Br)C(=O)N1CCc2ccccc21` (stereo not drawn) [1-[2-(2-bromophenoxy)propanoyl]indoline], 25.2 µM. Still for that read-out and setting: the result for `c1ccc(C(Cc2nc(-c3cccnc3)no2)c2ccccc2)cc1` [5-(2,2-diphenylethyl)-3-(3-pyridinyl)-1,2,4-oxadiazole] reads 13.5 µM.

With `c1ccc(C(Cc2nc(-c3ccncc3)no2)c2ccccc2)cc1` [4-[5-(2,2-diphenylethyl)-1,2,4-oxadiazol-3-yl]pyridine], the EC50 was 5.24 µM. For the compound `Cn1c(=O)c2c(-c3ccccc3)n(C3CCCCC3)cc2n(C)c1=O` [6-cyclohexyl-1,3-dimethyl-5-phenyl-pyrrolo[3,4-d]pyrimidine-2,4-dione], the midpoint of the response under setting [1], the EC50, lay at 31.2 µM. `O=C(Cc1cccs1)NCc1cn2ccccc2n1` [MLS000103862] yielded an EC50 of more than 45 µM. In the case of `CCOC(=O)c1cc2ccc(OC(=O)c3ccco3)cc2oc1=O` [ethyl 7-(2-furoyloxy)-2-oxo-2H-chromene-3-carboxylate], it took 7.18 µM to reach a half-maximal effect (EC50). Consider `CCCSc1nc(N2CCOCC2)c2c(c1C#N)CCCC2` [1-(4-morpholinyl)-3-(propylthio)-5,6,7,8-tetrahydroisoquinoline-4-carbonitrile], for which the 50% effective concentration (EC50) was determined as 4.34 µM. Still for that read-out and setting: for `Cc1cc(NC(=O)NC(=O)c2cccc(OC(F)(F)C(F)F)c2)[nH]n1` the value was more than 45 µM. Take `Cc1nc(-c2ccccc2)cc(N2CCCC2)n1` [2-methyl-4-phenyl-6-(1-pyrrolidinyl)pyrimidine]: the EC50 was more than 45 µM.

As to `Cc1ccc(C(C)C)c(OCc2nc(-c3nonc3N)no2)c1` [4-[5-[(5-methyl-2-propan-2-yl-phenoxy)methyl]-1,2,4-oxadiazol-3-yl]-1,2,5-oxadiazol-3-amine], under setting [1], the concentration for a half-maximal effect (EC50) is 74.6 µM.

Under setting [1], `c1ccc(-c2nc3nonc3nc2-c2ccccc2)cc1` [5,6-diphenyl-[1,2,5]oxadiazolo[3,4-b]pyrazine] displayed an EC50 of 41.6 µM. As to `Cc1cc(C)nc(-n2nc(C)c(Sc3ccc(F)cc3)c2N)n1` [2-(4,6-dimethyl-2-pyrimidinyl)-4-[(4-fluorophenyl)thio]-5-methyl-3-pyrazolamine], a half-maximal response (EC50) required 2.34 µM. `CCC(C)NC(=O)c1c(N)n(Cc2ccc3c(c2)OCO3)c2nc3ccccc3nc12` (stereo not drawn) [2-amino-1-(1,3-benzodioxol-5-ylmethyl)-N-butan-2-ylpyrrolo[3,2-b]quinoxaline-3-carboxamide] had an EC50 of 7.93 µM. This EC50 is about 3.4-fold higher than that of the compound before. Under setting [1], `O=C(NCc1ccco1)c1cc2ccc(O)cc2oc1=O` [MLS000049147] showed an EC50 of 17.7 µM. Compound `C=CCn1c(=O)c(C#N)cc2c(=O)n3ccccc3nc21` [SMR000029848] showed an EC50 of more than 45 µM.

Turning to `C/C(Cl)=C/Cn1c(N2CCCC2)nc2c1c(=O)n(C)c(=O)n2C` [7-((Z)-3-Chloro-but-2-enyl)-1,3-dimethyl-8-pyrrolidin-1-yl-3,7-dihydro-purine-2,6-dione], under setting [1], the midpoint of the response, the EC50, lay at 38.5 µM. As to `Cc1cc(C)n(-c2nc(NCCO)c3c4c(sc3n2)CCCC4)n1` [SMR000046729], a half-maximal effect (EC50) was put at 6.69 µM. As for `CCCCn1c(NC(=O)c2ccc(F)cc2)c(C#N)c2nc3ccccc3nc21` [MLS000055622], the EC50 was more than 45 µM.
